Source: US20250213744A1, “ANTIMICROBIAL HYDROGEL COMPOSITION” (priority 2022, published 2025)
Where “and” joins values, the source holds several entries; their conditions need not be identical. Identical values can stand only once. Entries after “also recorded” stand apart in the source; their conditions may differ.

Legend:
E. faecalis (JH2-2) = experiment: Modified Kirby-Bauer test, zone of inhibition; assay type: cell-based, Enterococcus faecalis; conditions: for Ratio of bacterial zone of inhibition following application of plasma jet to antimicrobial loaded gel over non-plasma activated gel: antimicrobial loaded PAA/PVA composite gel
Description: (§1) The Ar-CAP jet shown in FIG. 14 consisted of an internal steel needle electrode (outer diameter=0.9 mm, inner diameter=0.6 mm, length 51 mm) sealed inside a quartz tube (inner diameter=1.5 mm, outer diameter=3 mm). Two external copper electrodes of length 4 mm 5.6 cm from electrode, spaced 5.4 cm apart and 6.6 cm from the bottom of the tube. Ar gas was kept at 1.0 standard litres per minute (SLPM) and generated at 10 kV at 23.5 kHz. Voltage and current waveforms were monitored using oscilloscope. The gap distance was 1.5 cm and the Ar-CAP jet was stationary unless otherwise stated. 31
(§2) Bacterial overnight was made as outlined, subcultures were made in fresh MH broth absorbance corrected to OD 0.5 (˜[…] CFU/mL). 100 μL was added to Muller-Hinton agar to and spread to create a bacterial lawn. Gel discs were placed in the centre of the plate and either treated with Ar-CAP or left untreated. Plates were incubated at 37° C. for 18 h, facing up to prevent the gel from moving. Zone of inhibition (ZOI) was measured and corrected to the diameter of the gel.
(§3) The Kirby-Bauer (KB) test is a standard test used to assess the susceptibility of bacteria to different antimicrobials by measuring the zone of bacterial growth inhibition (ZOI) due to the out diffusion of the antimicrobial agent from a sterile disc soaked in that compound. In this case, a modified form of the KB test was performed. Plasma activate antimicrobial loaded, composite hydrogels were compared to non-activated antimicrobial loaded, composite hydrogels and non-loaded, composite hydrogels with and without plasma activation.

P. aeruginosa (PAO1) = experiment: Modified Kirby-Bauer test, zone of inhibition; assay type: cell-based, Pseudomonas aeruginosa; conditions: for Ratio of bacterial zone of inhibition following application of plasma jet to antimicrobial loaded gel over non-plasma activated gel: antimicrobial loaded PAA/PVA composite gel
Description: as §1, §2, §3

[1] = Passive leaching of antimicrobial from PAA composite gel, judged qualitatively from ZOI data; conditions: without CAP; judged from ZOI and ZOI ratios
Description: The variation in bacterial susceptibility to the plasma jet applied to the unloaded gel is interesting and is thought to related to the varying susceptibility of different species to the RONS generated by the CAP. Sensitivity to different antimicrobials varied as a function of both the antimicrobial moiety and the bacterial species. In this case, P. aeruginosa is seen to be sensitive to Ag^+ passively leaching from the composite gel, while S. aureus and E. faecalis are not.
Relative passive leaching of different antimicrobials can be qualitatively assessed by looking at FIG. 5-7. The difficulty in cross comparison of the different antimicrobial susceptibility of the bacterial species to the various antimicrobials tested. The key comparison here is to look at the ratio of ZOI of the antimicrobial loaded composite gel (1st column in graphs below) to the zone of inhibition for the same loaded gel following application of the CAP jet 2nd column).

S. aureus (H560) = experiment: Modified Kirby-Bauer test, zone of inhibition; assay type: cell-based, Staphylococcus aureus; conditions: for Ratio of bacterial zone of inhibition following application of plasma jet to antimicrobial loaded gel over non-plasma activated gel: antimicrobial loaded PAA/PVA composite gel
Description: as §1, §2, §3

[2] = Ninhydrin assay, gentamicin release from PAA/PVA composite hydrogel with and without Ar-CAP jet; assay type: physicochemical
Protocol: 0.1 g of the drug loaded PAA powder was mixed with dry PVA (5% (w/v)) to obtain a homogenous powder and then is dissolved at 95° C. for 1 h. 20 ml of the PAANaPA/PVA solution was then added to a […] diameter petri dish and spread evenly. The gels were placed into a −20° C. freezer until frozen and removed and defrosted at 25° C. this process was repeated twice more to enable cryo-crosslinking of the PVA.
The Ar-CAP jet shown in FIG. 14 consisted of an internal steel needle electrode (outer diameter=0.9 mm, inner diameter=0.6 mm, length 51 mm) sealed inside a quartz tube (inner diameter=1.5 mm, outer diameter=3 mm). […] Voltage and current waveforms were monitored using oscilloscope. […]
Aminoglycoside was made up in pH 7.4 assay buffer (39.1 mL 0.2 M sodium hydroxide solution was added to 50 mL 0.2 M monobasic potassium phosphate solution and made up to a final volume of 200 mL with DI H2O) to starting concentration of 1 mg/mL. […] 200 μL was aliquoted into a round bottom 96-well plate and the absorbance was read at 560 nm (Clariostar, Omega). […]
Gentamicin is an aminoglycoside antibiotic used both systemically and topically. […] Ninhydrin was used to quantify release of gentamicin both prior to CAP treatment (passive release) and following CAP treatment. […] The Ninhydrin assay was used to quantify release of gentamicin with (triggered release) and without CAP treatment (passive release).

[3] = system: clinical strains of S. aureus; conditions: many clinical strains of S. aureus; cited from earlier work
[4] = two secondary amine groups; net positive charge at pH 7; cited from earlier work
[5] = system: clinical strains of P. aeruginosa; conditions: many clinical strains of P. aeruginosa; cited from earlier work

Molecule	sensitivity to antimicrobial passively leaching from the composite gel (E. faecalis (JH2-2); E. faecalis, no CAP)	Ratio of bacterial zone of inhibition following application of plasma jet to antimicrobial loaded gel over non-plasma activated gel (E. faecalis (JH2-2); E. faecalis)	Ratio of bacterial zone of inhibition following application of plasma jet to antimicrobial loaded gel over non-plasma activated gel (P. aeruginosa (PAO1))	sensitivity to antimicrobial passively leaching from the composite gel (P. aeruginosa (PAO1); no CAP)	passive release / leaching from the PAA composite gel (qualitative) [1]	Ratio of bacterial zone of inhibition following application of plasma jet to antimicrobial loaded gel over non-plasma activated gel (S. aureus (H560))	sensitivity to antimicrobial passively leaching from the composite gel (S. aureus (H560); no CAP)	sensitivity of E. faecalis compared with P. aeruginosa and S. aureus (E. faecalis (JH2-2); loaded composite gel)	gentamicin released from gel into the surrounding PBS (triggered release) ([2]; after two minutes treatment with Ar CAP jet)	gentamicin passively released from gel ([2]; without CAP treatment)	Minimal Inhibitory Concentration (MIC) [3]	pka of secondary amine groups [4]	Minimal Inhibitory Concentration (MIC) [5]
O=[N+]([O-])[O-].[Ag+] [Silver, Silver Nitrate]	are not	6	1.5	sensitive	much greater degree of passive out-diffusion	7	are not						
Cetrimide		1.3	2.7		much greater degree of passive out-diffusion	1.8		less sensitive					
gentamicin		>10	3.6		little passive leaching	8.2			61 mg/mL	1.1 mg/mL	2000 to 4000 µg/mL	8.8 and 9.9	2000 to 4000 µg/mL
Polymyxin B		>30	13		relatively no passive release; also recorded: little passive leaching	34							
